Patent US20220304286A1, “SYSTEMS AND METHODS FOR IN VIVO DUAL RECOMBINASE-MEDIATED CASSETTE EXCHANGE (dRMCE) AND DISEASE MODELS THEREOF” (CEDARS-SINAI MEDICAL CENTER, priority 2019, published 2022)
Entries after “also recorded” stand apart in the source; their conditions may differ.

How the values were obtained:
MADR K27M tumor cells = experiment: High-throughput drug testing: live-cell imaging of proliferation, MADR K27M tumor cell lines; assay type: cell-based, mouse; conditions: imaged for 92 hours, Incucyte phase contrast, 4 biological replicates
Method: (§1) In high-throughput drug testing experiments, 10.000 cell from the cell lines generated from tumor dissociation and non-tumor control cells were plated in 96 well plates. 24 hours after the seeding appropriate concentration of each drug (1 μM for Vacquinol-1(Sigma-Aldrich, SML1187) and 0.5 μM for AKT 1/2 kinase inhibitor (Sigma- Aldrich, A6730)) was added to the media and cells were imaged for 92 hours in phase contrast using Incucyte S3 System. Images were collected every 2 hours using Incucyte S3 Software. Cell proliferation images analysis was done with Incucyte S3 software and normalized results presented and analyzed with Graphpad Prism 7.
(§2) Mice were euthanized in CO2 chamber and brains were collected in PBS. Immediately, EGFP+ tissue was micro-dissected under a Revolve Hybrid Microscope (Echo Labs, San Diego, Calif.). If allowed by the size of the tumor, some remains of the brain with residual tumor tissue was fixed in 4% PFA for tissue analysis. Microdissected tissue was mechanically dissociated into <1 mm pieces and further digested with Collagenase IV (Worthington Biochemical, Lakewood, N.J.), and DNAse I (Worthington Biochemical, Lakewood, N.J.). The resultant single cell suspension was filtered through […] cell strainer (Stellar Scientific, Baltimore, Md.) and erythrocytes were lysed with ACK lysis buffer (Thermo Fisher Scientific, Waltham, Mass.). […]

[1] = tested on: NPCs (tdTomato+ non-tumor control cells); experiment: High-throughput drug testing: live-cell imaging of proliferation, non-tumor control NPCs; assay type: cell-based, mouse; conditions: imaged for 92 hours, paired toxicity screening
Method: as §1
as §2, with “Mass.). Single cell suspensions were split into 3 parts: First, for scRNAseq or sc-ATACseq experiments, GFP+ cells from single cell samples were FACS sorted (into 1.5 ml tubes for 10× Chromium). A secondary fraction was used for in vitro cell line establishment.” for “Mass.).”

K27M tumor cells = conditions: earlier finding, no details given; cited from earlier work
[2] = AKT 1/2 kinase inhibitor 0.5 μM

**Q.** For `O=c1[nH]c2ccccc2n1C1CCN(Cc2ccc(-c3nc4cc5nc[nH]c5cc4nc3-c3ccccc3)cc2)CC1` [Akt1/2 kinase inhibitor], which “cell proliferation of K27M tumor population” value (MADR K27M tumor cells; [2]) is on record?
**A.** Its value is “decreases proliferation”.

**Q.** What about the “cell proliferation of NPCs” value [1, 2] of the same compound?
**A.** The value was “decreases proliferation”.

**Q.** What about the “cell proliferation of NPCs” value ([1]; AKT 1/2 kinase inhibitor 0.5 μM, listed as Akt1/2 inhibitor) of the same compound?
**A.** Its value is “similarly inhibited NPC proliferation”.

**Q.** And the “toxicity to K27M tumor cells (previously identified)” value (K27M tumor cells)?
**A.** Its value is “selectively toxic to K27M tumor cells”.

**Q.** Which results are given for `OC(c1cc(-c2ccc(Cl)cc2)nc2ccccc12)C1CCCCN1` (stereo not shown) [Vacquinol-1]?
**A.** cell proliferation of K27M tumor population (MADR K27M tumor cells; Vacquinol-1 1 μM): inhibits K27M growth; also recorded: decreases proliferation preferentially; cell proliferation of NPCs ([1]; Vacquinol-1 1 μM): does not alter NPC culture growth; toxicity to K27M tumor cells (previously identified) (K27M tumor cells): selectively toxic to K27M tumor cells
